The record followed here is US20110053923A1, “CHEMICAL COMPOUNDS 610” (AstraZeneca, priority 2008, published 2011).

Assay [1] deals with mTOR (Homo sapiens, UniProt P42345). As to the kind of experiment: Enzyme - mTOR Kinase Assay (Echo).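 Note: enzyme expressed in HEK293 cells, 2 h incubation at room temperature, read-out is phosphorylation of a biotinylated peptide substrate detected with an anti-phospho p70 S6 Kinase (T389) antibody, inhibition lowers signal.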 Type of assay: biochemical. The note with it: recombinant FLAG-tagged mTOR (1362-2549); AlphaScreen; ATP 20 μM. In general terms: In Alpha technology, singlet oxygen from a donor bead excites a nearby acceptor bead.
mTOR, sequence (P42345 1362-2549): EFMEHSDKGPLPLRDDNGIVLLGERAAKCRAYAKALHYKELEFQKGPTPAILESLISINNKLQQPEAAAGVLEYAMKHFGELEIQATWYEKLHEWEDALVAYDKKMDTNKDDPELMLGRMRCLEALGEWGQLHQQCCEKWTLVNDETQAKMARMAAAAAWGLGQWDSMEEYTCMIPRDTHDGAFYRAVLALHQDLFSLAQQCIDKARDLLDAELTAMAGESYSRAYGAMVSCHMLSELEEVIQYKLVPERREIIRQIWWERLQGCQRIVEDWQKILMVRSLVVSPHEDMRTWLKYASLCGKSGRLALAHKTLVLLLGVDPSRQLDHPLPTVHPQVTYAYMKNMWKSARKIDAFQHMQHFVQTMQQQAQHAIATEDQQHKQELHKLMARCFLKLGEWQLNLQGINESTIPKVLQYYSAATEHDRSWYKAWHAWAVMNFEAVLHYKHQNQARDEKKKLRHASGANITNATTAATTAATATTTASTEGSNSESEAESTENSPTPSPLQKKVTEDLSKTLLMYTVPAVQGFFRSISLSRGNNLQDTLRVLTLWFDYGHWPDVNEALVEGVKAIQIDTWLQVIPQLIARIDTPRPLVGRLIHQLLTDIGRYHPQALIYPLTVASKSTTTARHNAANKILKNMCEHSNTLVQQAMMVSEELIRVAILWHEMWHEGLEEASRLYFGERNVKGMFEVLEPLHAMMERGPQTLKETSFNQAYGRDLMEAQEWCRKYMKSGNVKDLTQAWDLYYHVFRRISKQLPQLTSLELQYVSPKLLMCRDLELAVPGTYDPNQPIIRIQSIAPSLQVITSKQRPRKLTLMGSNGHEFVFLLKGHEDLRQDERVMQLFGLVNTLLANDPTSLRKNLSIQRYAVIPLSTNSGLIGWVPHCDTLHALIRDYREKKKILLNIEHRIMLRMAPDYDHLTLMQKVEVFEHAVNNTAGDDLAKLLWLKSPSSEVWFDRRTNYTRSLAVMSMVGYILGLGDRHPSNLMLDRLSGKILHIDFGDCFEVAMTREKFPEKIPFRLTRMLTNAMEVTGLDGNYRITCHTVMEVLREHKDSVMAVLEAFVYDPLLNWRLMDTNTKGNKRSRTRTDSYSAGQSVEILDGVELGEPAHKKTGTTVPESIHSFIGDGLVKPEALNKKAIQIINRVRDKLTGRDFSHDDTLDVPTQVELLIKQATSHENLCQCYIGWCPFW
Assay [2] deals with T1, ATR (Homo sapiens, UniProt Q13535).
T1 construct: obtained from HeLa nuclear extract (CIL Biotech, Mons, Belgium) by immunoprecipitation with rabbit polyclonal antiserum raised to amino acids 400-480 of ATR; host or cells: HeLa nuclear extract
T1 sequence (Q13535 whole entry, the tested form may be a part): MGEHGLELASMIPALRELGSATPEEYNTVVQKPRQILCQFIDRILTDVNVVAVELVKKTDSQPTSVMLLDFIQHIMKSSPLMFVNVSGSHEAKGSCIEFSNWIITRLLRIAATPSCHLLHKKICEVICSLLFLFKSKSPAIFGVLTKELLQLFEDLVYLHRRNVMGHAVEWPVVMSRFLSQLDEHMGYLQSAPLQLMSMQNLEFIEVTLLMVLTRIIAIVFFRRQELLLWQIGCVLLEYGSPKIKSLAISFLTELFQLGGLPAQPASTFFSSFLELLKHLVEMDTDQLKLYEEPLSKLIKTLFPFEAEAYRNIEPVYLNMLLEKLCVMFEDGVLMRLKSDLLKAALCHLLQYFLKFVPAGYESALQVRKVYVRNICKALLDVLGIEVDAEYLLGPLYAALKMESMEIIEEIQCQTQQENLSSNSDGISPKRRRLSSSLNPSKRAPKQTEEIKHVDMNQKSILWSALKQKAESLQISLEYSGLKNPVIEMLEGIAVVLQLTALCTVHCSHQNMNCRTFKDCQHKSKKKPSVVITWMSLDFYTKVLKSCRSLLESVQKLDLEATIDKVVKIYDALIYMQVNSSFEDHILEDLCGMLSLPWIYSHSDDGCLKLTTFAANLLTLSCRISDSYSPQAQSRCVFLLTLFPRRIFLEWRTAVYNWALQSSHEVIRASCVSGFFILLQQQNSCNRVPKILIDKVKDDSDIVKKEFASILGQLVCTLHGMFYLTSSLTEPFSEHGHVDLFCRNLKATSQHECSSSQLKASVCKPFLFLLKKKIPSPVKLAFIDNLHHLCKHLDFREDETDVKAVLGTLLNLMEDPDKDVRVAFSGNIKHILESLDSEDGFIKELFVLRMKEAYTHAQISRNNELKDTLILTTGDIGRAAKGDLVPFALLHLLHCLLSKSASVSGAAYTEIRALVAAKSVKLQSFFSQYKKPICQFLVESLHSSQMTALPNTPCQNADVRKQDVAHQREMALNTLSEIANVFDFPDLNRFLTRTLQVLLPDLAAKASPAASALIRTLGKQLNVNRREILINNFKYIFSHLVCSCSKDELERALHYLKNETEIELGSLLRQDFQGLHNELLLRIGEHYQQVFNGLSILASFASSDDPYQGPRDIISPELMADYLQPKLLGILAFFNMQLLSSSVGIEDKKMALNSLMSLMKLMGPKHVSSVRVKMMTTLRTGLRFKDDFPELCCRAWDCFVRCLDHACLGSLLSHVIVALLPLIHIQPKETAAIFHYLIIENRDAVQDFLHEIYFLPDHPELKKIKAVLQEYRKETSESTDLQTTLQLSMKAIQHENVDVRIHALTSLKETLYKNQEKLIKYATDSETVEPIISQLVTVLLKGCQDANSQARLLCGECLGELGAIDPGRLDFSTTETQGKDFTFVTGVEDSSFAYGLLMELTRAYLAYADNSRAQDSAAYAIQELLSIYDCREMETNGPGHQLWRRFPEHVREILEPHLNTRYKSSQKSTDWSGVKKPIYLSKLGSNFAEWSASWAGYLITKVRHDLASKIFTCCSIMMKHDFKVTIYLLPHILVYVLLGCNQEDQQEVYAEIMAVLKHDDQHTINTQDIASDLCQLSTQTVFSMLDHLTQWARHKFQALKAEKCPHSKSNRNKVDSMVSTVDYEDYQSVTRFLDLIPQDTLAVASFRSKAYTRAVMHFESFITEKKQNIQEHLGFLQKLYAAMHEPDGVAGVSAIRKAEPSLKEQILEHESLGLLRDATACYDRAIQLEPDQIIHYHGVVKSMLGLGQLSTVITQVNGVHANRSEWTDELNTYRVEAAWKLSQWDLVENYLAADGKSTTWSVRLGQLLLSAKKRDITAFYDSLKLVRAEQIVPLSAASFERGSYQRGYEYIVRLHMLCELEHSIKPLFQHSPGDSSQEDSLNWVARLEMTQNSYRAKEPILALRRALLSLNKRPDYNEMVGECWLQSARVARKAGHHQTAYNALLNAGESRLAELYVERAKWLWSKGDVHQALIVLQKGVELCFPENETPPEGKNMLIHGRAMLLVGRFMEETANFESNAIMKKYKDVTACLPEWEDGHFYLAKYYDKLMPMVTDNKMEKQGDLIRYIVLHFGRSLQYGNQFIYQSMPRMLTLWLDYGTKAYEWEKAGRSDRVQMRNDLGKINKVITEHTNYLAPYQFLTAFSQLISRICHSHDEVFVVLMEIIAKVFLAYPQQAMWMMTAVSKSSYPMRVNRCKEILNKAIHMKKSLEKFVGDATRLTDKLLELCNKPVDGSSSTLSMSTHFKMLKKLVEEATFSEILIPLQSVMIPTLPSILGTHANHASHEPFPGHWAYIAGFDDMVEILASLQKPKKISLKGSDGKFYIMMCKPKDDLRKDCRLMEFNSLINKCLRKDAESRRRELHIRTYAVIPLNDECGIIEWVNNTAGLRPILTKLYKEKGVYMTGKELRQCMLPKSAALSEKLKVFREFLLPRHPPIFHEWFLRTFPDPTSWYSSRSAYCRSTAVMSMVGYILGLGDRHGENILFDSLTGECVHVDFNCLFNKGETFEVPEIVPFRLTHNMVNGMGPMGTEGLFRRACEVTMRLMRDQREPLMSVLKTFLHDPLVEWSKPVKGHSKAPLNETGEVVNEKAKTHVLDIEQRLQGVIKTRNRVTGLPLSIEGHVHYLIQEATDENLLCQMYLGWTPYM
T1 sequence (Q8WXE1 whole entry partner, the tested form may be a part): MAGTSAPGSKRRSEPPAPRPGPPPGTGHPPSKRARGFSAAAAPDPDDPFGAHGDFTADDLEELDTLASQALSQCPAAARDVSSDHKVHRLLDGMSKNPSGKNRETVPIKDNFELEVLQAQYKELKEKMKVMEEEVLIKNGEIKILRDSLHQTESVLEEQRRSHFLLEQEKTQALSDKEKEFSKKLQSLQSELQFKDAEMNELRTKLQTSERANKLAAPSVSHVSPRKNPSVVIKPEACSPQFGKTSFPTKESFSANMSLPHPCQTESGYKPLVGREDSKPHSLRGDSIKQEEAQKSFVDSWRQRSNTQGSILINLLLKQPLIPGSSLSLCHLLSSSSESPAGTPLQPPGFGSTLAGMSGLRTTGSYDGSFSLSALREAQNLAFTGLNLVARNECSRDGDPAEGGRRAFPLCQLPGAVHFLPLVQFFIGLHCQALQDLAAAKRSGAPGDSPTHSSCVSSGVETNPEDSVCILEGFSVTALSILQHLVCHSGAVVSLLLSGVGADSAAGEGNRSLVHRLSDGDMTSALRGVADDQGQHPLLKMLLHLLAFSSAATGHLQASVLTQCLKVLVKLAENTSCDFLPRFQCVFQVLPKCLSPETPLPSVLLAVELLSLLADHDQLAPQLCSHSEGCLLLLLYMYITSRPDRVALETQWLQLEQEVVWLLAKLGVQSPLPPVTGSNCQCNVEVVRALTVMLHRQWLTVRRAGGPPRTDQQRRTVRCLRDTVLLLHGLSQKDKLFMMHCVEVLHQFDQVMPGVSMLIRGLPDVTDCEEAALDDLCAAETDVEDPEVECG
The experiment in a line: Enzyme Assay - ATR (Test (a)).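 Note: kinase activity of bead-bound ATR toward a GST-p53 N-terminal fragment substrate, 1 h at 37 °C, read by chemiluminescence, with inhibitor-free wells as control.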 Type of assay: biochemical.

Where [3] appears, read: ATR immunoprecipitated from HeLa nuclear extract, 3 μM ATP, average of individual tests, read-out: ATR average IC50.

The structures appear in SMILES notation. pIC50: −log10 of the molar value. Where two headings read alike, the source gives them in different places.

For `CCS(=O)(=O)C1(c2cc(N3CCOC[C@H]3C)nc(-c3cccc4[nH]ccc34)n2)CC1` [Example 3.20, 4-{4-[1-(Ethylsulfonyl)cyclopropyl]-6-[(3R)-3-methylmorpholin-4-yl]pyrimidin-2-yl}-1H-indole], the pIC50 in assay [1] was 7.15; in assay [2] (setting [3]) it was 8.60.
With `C[C@@H]1COCCN1c1cc(C2(S(C)(=O)=O)CCNCC2)nc(-c2cccc3[nH]ccc23)n1` [Example 3.15, 4-{4-[(3R)-3-Methylmorpholin-4-yl]-6-[4-(methylsulfonyl)piperidin-4-yl]pyrimidin-2-yl}-1H-indole], the values for the negative-log IC50 (pIC50) in assay [1] and in assay [2] (setting [3]) were 6.01 and 8.59, respectively.
The like results for `CC(C)S(=O)(=O)C1(c2cc(N3CCOCC3)nc(-c3cccc4[nH]ccc34)n2)CC1` [Example 1.11, 4-(4-{1-[(1-methylethyl)sulfonyl]cyclopropyl}-6-morpholin-4-ylpyrimidin-2-yl)-1H-indole] were, in that order, 6.91 and 7.88.
Turning to `C[C@@H]1COC[C@H](C)N1c1cc(C2(S(C)(=O)=O)CC2)nc(-c2cccc3[nH]ccc23)n1` [Example 4.01, 4-{4-[(3S,5R)-3,5-Dimethylmorpholin-4-yl]-6-[1-(methylsulfonyl)cyclopropyl]pyrimidin-2-yl}-1H-indole], in assay [2] (setting [3]), the pIC50 is 7.70.
Same read-out and setting: under `CS(=O)(=O)C1(c2cc(N3CCOCC3)nc(-c3cccc4[nH]ccc34)n2)CCOCC1` [Example 1.09, 4-{4-[4-(Methylsulfonyl)tetrahydro-2H-pyran-4-yl]-6-morpholin-4-ylpyrimidin-2-yl}-1H-indole] stands 8.43.
On to `Cc1cc2c(-c3nc(N4CCOCC4)cc(C4(S(C)(=O)=O)CC4)n3)cccc2[nH]1` [Example 1.03, 2-Methyl-4-{4-[1-(methylsulfonyl)cyclopropyl]-6-morpholin-4-ylpyrimidin-2-yl}-1H-indole], for which the values for the negative logarithm of the IC50 (pIC50) in assay [1] and in assay [2] were 6.78 and 7.56, respectively.
Consider `C[C@@H]1COCCN1c1cc(C2(S(C)(=O)=O)CCOCC2)nc(-c2cccc3[nH]ccc23)n1` [Example 3.08, 4-{4-[(3R)-3-Methylmorpholin-4-yl]-6-[4-(methylsulfonyl)tetrahydro-2H-pyran-4-yl]pyrimidin-2-yl}-1H-indole], for which the figures for the pIC50 in assay [1] and in assay [2] (setting [3]) were 6.65 and 8.64, respectively.
Turning to `CS(=O)(=O)C1(c2cc(N3CCOCC3)nc(-c3cccc4[nH]ccc34)n2)CC1` [Example 1.01, 4-{4-[1-(Methylsulfonyl)cyclopropyl]-6-morpholin-4-ylpyrimidin-2-yl}-1H-indole], in assay [1], the pIC50 was 6.75.
Take `O=S(=O)(C1CC1)C1(c2cc(N3CCOCC3)nc(-c3cccc4[nH]ccc34)n2)CCOCC1` [Example 1.13, 4-{4-[4-(cyclopropylsulfonyl)tetrahydro-2H-pyran-4-yl]-6-morpholin-4-ylpyrimidin-2-yl}-1H-indole]: the negative-log IC50 (pIC50) was 5.91 in assay [1] and 7.23 in assay [2] (setting [3]).
As to `O=S(=O)(C1CC1)C1(c2cc(N3CCOCC3)nc(-c3cccc4[nH]ccc34)n2)CCNCC1` [Example 1.14, 4-{4-[4-(cyclopropylsulfonyl)piperidin-4-yl]-6-morpholin-4-ylpyrimidin-2-yl}-1H-indole], the pIC50 in assay [1] was 5.84; in assay [2] (setting [3]), 7.65.
In the case of `C[C@@H]1COCCN1c1cc(C2(S(=O)(=O)C3CC3)CCNCC2)nc(-c2cccc3[nH]ccc23)n1` [Example 3.18, 4-{4-[4-(Cyclopropylsulfonyl)piperidin-4-yl]-6-[(3R)-3-methylmorpholin-4-yl]pyrimidin-2-yl}-1H-indole], the pIC50 in assay [1] was 6.42; in assay [2] (setting [3]), 8.12.
`CCS(=O)(=O)C1(c2cc(N3CCOC[C@H]3C)nc(-c3cccc4[nH]ccc34)n2)CCNCC1` [Example 3.22, 4-{4-[4-(Ethylsulfonyl)piperidin-4-yl]-6-[(3R)-3-methylmorpholin-4-yl]pyrimidin-2-yl}-1H-indole]: the figures for the pIC50 in assay [1] and in assay [2] (setting [3]) were 6.26 and 8.09, respectively.
The like results for `Cc1cc(-c2nc(N3CCOC[C@H]3C)cc(C3(S(C)(=O)=O)CCOCC3)n2)c2cc[nH]c2c1` [Example 3.09, 6-Methyl-4-{4-[(3R)-3-methylmorpholin-4-yl]-6-[4-(methylsulfonyl)tetrahydro-2H-pyran-4-yl]pyrimidin-2-yl}-1H-indole] were, in that order, 6.35 and 8.80.
For `C[C@@H]1COCCN1c1cc(C2(S(C)(=O)=O)CCC2)nc(-c2cccc3[nH]ccc23)n1` [Example 3.16, 4-{4-[(3R)-3-Methylmorpholin-4-yl]-6-[1-(methylsulfonyl)cyclobutyl]pyrimidin-2-yl}-1H-indole], the pIC50 in assay [1] is 7.07; in assay [2] (setting [3]) it was 8.70.
The like results for `COc1cc(-c2nc(N3CCOC[C@H]3C)cc(C3(S(C)(=O)=O)CCOCC3)n2)c2cc[nH]c2c1` [Example 3.11, 6-Methoxy-4-{4-[(3R)-3-methylmorpholin-4-yl]-6-[4-(methylsulfonyl)tetrahydro-2H-pyran-4-yl]pyrimidin-2-yl}-1H-indole] were, in that order, 7.11 and 8.80.
For `O=S(=O)(C1CC1)C1(c2cc(N3CCOCC3)nc(-c3cccc4[nH]ccc34)n2)CC1` [Example 1.12, 4-{4-[1-(cyclopropylsulfonyl)cyclopropyl]-6-morpholin-4-ylpyrimidin-2-yl}-1H-indole], the pIC50 in assay [1] is below 4.05; in assay [2] (setting [3]) it was 7.49.
The corresponding values for `CCS(=O)(=O)C1(c2cc(N3CCOCC3)nc(-c3cccc4[nH]ccc34)n2)CC1` [Example 1.10, 4-{4-[1-(ethylsulfonyl)cyclopropyl]-6-morpholin-4-ylpyrimidin-2-yl}-1H-indole] are 7.02 and 7.82.
On to `Cc1cc2c(-c3nc(N4CCOC[C@H]4C)cc(C4(S(C)(=O)=O)CCOCC4)n3)cccc2[nH]1` [Example 3.10, 2-Methyl-4-{4-[(3R)-3-methylmorpholin-4-yl]-6-[4-(methylsulfonyl)tetrahydro-2H-pyran-4-yl]pyrimidin-2-yl}-1H-indole], for which the figures for the pIC50 in assay [1] and in assay [2] (setting [3]) were 6.84 and 8.45, respectively.
The like results for `C[C@@H]1COCCN1c1cc(C2(S(C)(=O)=O)CC2)nc(-c2cc(Cl)cc3[nH]ccc23)n1` [Example 3.05, 6-chloro-4-{4-[(3R)-3-methylmorpholin-4-yl}-6-[1-(methylsulfonyl)cyclopropyl]pyrimidin-2-yl}-1H-indole] were, in that order, 7.26 and 8.37.
The like results for `C[C@@H]1COCCN1c1cc(C2(S(C)(=O)=O)CC2)nc(-c2cc(C#N)cc3[nH]ccc23)n1` [Example 3.04, 4-{4-[(3R)-3-Methylmorpholin-4-yl]-6-[1-(methylsulfonyl)cyclopropyl]pyrimidin-2-yl}-1H-indole-6-carbonitrile] were, in that order, 6.68 and 7.45.
Regarding `CS(=O)(=O)C1(c2cc(N3CC4CCC(C3)O4)nc(-c3cccc4[nH]ccc34)n2)CC1` [Example 5.01, 4-{4-[1-(Methylsulfonyl)cyclopropyl]-6-(8-oxa-3-azabicyclo[3.2.1]oct-3-yl)pyrimidin-2-yl}-1H-indole], the pIC50 in assay [1] is 7.68.
As for `CC(C)S(=O)(=O)C1(c2cc(N3CCOC[C@H]3C)nc(-c3cccc4[nH]ccc34)n2)CCNCC1` [Example 3.25, 4-(4-{4-[(1-Methylethyl)sulfonyl]piperidin-4-yl}-6-[(3R)-3-methylmorpholin-4-yl]pyrimidin-2-yl)-1H-indole], the pIC50 in assay [1] is 5.37; in assay [2] (setting [3]), 7.69.

Broadly, the pIC50 is the negative decadic logarithm of the IC50, by convention in mol/L.
